Test results: paper PMC9415646, “Improving Aqueous Solubility and In Vitro Pharmacokinetic Properties of the 3-Nitroimidazo[1,2-a]pyridine Antileishmanial Pharmacophore” (Pharmaceuticals, 2022)

Assays:
[1] = test system: L. donovani promastigotes; experiment: Antileishmanial activity against L. donovani promastigotes (MTT assay); format: cell-based; settings: Leishmania donovani; promastigotes, 72 h, MTT; read-out: EC50 L. donovani Pro.
Method: The Leishmania species used in this study were L. donovani (MHOM/IN/00/DEVI) purchased from CNR Leishmania (Montpellier, France). Leishmania promastigote forms were grown in Schneider’s Drosophila medium (Life Technologies, Saint-Aubin, France) supplemented with 100 U/mL penicillin, 100 µg/mL streptomycin, 2 mM L-glutamine and 20% FCS (Life Technologies, Saint-Aubin, France) at 27 °C. The in vitro evaluation of the tested compound’s antileishmanial activity on promastigote forms was carried out by MTT assay according to the Mosmann protocol with some modifications. Briefly, promastigotes in log-phase were incubated at an average density of 10^6 parasites/mL in sterile 96-well plates with various concentrations of compound dissolved in DMSO (final concentration less than 0.5% v/v), in duplicate. Appropriate controls treated with DMSO, Miltefosine, Amphotericin B, Fexinidazole, and Fexinidazole sulfone (reference drugs purchased from Sigma-Aldrich, Saint-Louis, Missouri, USA) were added to each set of experiments. After a 72 h incubation period at 27 °C, parasitic metabolic activity was determined. Each plate-well was then microscope-analyzed to detect any precipitate formation. 20 µL of MTT (3-(4,5-dimethylthiazol-2-yl)-2,5-diphenyltetrazolium bromide) (Sigma-Aldrich, Saint-Louis, Missouri, USA) solution (5 mg/mL in PBS) were added to each well and incubated for 4 h at 27 °C. The enzyme reaction was then stopped by addition of 100 µL of 50% isopropanol–10% sodium dodecyl sulfate. Plates were shaken vigorously at 300 rpm for 10 min. The absorbance was measured at 570 nm in a BIO-TEK Elx808 (Biotek, Colmar, France) absorbance microplate reader. […] EC50 values were calculated by non-linear regression analysis processed dose-response curves, using TableCurve 2D V5.0 software (Systat Software Inc. (Palo Alto, CA, USA)). EC50 values represent the mean value calculated from at least three separate experiments.

[2] = test system: L. infantum intracellular amastigotes; experiment: Antileishmanial activity on L. infantum intracellular (intra-THP1 macrophage) amastigotes; format: cell-based; settings: Leishmania infantum, THP-1; intramacrophage (THP1) amastigotes, 120 h; read-out: EC50 L. infantum Intra. Ama.
Method: The undifferentiated THP1 human monocyte cells (acute monocytic leukemia cell line purchased from ATCC, ref TIB-202) were grown in RPMI 1640 medium (Life Technologies, Saint-Aubin, France) supplemented with 10% FCS (Life Technologies, Saint-Aubin, France), 100 U/mL penicillin, 100 µg/mL streptomycin and 2 mM L-glutamine at 37 °C, 5% CO2. The culture was maintained between 3.10^5 and 1.10^6 cells/mL. The in vitro evaluation of the antileishmanial activity on intracellular amastigote forms of the tested compound was assessed as below.
Briefly, 200 μL of THP-1 cells with Phorbol 12-Myristate 13-Acetate (final concentration 50 ng/mL) were seeded in 96-well plates at an average density of 0.77 × 10^5 cells/mL and incubated for 96 h at 37 °C, 5% CO2. Promastigotes were centrifuged at 3000 rpm for 10 min and the supernatant replaced by the same volume of complete RPMI pH 5.4 and incubated for 24 h at 27 °C. Differentiated THP-1 cells were then infected by acidified promastigotes with an infection ratio of twenty parasites for one macrophage and incubated for 24 h at 37 °C, 5% CO2.
• Luciferase activity and determination of EC50 were performed as above.

[3] = Cytotoxicity evaluation on HepG2 cell line (MTT); format: cell-based; settings: human, HepG2 cells
Method: The tested molecules’ cytotoxicity was assessed according to the method of Mosmann with slight modifications. […] Triplicate assays were performed for each sample. Each plate-well was then microscope-examined to detect possible precipitate formation before the medium was aspirated from the wells. 100 µL of MTT (3-(4,5-dimethyl-2-thiazolyl)-2,5-diphenyl-2H-tetrazolium bromide) solution (0.5 mg/mL in medium without FCS) were then added to each well. […] Plates were shaken vigorously (700 rpm) for 10 min. The absorbance was measured at 570 nm with 630 nm as reference wavelength using a BIO-TEK ELx808 Absorbance Microplate Reader. DMSO was used as blank and doxorubicin (purchased from Sigma Aldrich) as positive control. Cell viability was calculated as percentage of control (cells incubated without compound). […] (Palo Alto, CA, USA)). CC50 values represent the mean value calculated from three separate experiments.

[4] = Redox potential of the nitro group by cyclic voltammetry; format: physicochemical; settings: cyclic voltammetry in DMSO, corrected versus NHE
Method: Voltammetric measurements were carried out with a potentiostat Autolab PGSTAT100 (ECO Chemie, Utrecht, The Netherlands) controlled by GPES 4.09 software (ECO Chemie, Utrecht, The Netherlands). Experiments were performed at room temperature in a homemade airtight three–electrode cell connected to a vacuum/argon line. The reference electrode consisted of a saturated calomel electrode (SCE) separated from the solution by a bridge compartment. The counter electrode was a platinum wire of 1 cm^2 apparent surface. The working electrode was a GC microdisk (1.0 mm in diameter–Bio-logic SAS). The supporting electrolyte (nBu4N)[PF6] (Fluka, 99% puriss electrochemical grade) and the solvent DMSO (Sigma-Aldrich puriss p.a. dried <0.02% water) were used as received and simply degassed under argon. The solutions used during electrochemical analyses were typically 10^−3 M in compound and 0.1 M in supporting electrolyte. Before each measurement, the solutions were degassed by bubbling Ar, and the working electrode was polished with a polishing machine (Presi P230, Eybens, France). Under the experimental conditions adopted in this work, the half-wave potential (E1/2) of the ferrocene Fc+/Fc couple in DMSO was E1/2 = 0.45 V vs. SCE. Experimental peak potentials were measured versus SCE and converted to NHE by adding 0.241 V.

| SMILES | EC50 [1] [µM] | EC50 [2] [µM] | CC50 at 72 h [3] [µM] | E0 (redox potential of the nitro group) [4] [V] | melting point [°C] |
| --- | --- | --- | --- | --- | --- |
| O=[N+]([O-])c1c(CS(=O)(=O)c2ccc(OC(F)(F)F)cc2)nc2c(Br)cc(Cl)cn12 [Compound 2f, 8-Bromo-6-Chloro-3-Nitro-2-[(4-Trifluoromethoxyphenylsulfonyl)methyl]imidazo[1,2-a] pyridine] | 4.4 ± 0.1 | 4.2 ± 0.3 | > 25 | −0.62 | 178 |
| O=[N+]([O-])c1c(CS(=O)(=O)c2ccc(OC(F)(F)F)cc2)nc2c(Sc3ccc(Cl)cc3)cc(Cl)cn12 [Compound 3e, 6-Chloro-8-[(4-Chlorophenyl)thio]-3-Nitro-2-[(4-Trifluoromethoxyphenylsulfonyl)methyl]imidazo[1,2-a]pyridine] | 2.6 ± 0.2 | 1.6 ± 0.1 | > 12.5 | −0.66 | 173 |
| O=[N+]([O-])c1c(CS(=O)(=O)c2ccc(Cl)cc2)nc2c(Sc3ccc(Cl)cc3)cc(Cl)cn12 [Compound 3b, 6-Chloro-2-[(4-Chlorophenylsulfonyl)methyl]-8-[(4-Chlorophenyl)thio]-3-Nitroimidazo[1,2-a]pyridine] | 1.4 ± 0.1 | 0.7 ± 0.1 | 8.9 ± 1.3 | −0.68 | 221 |
| O=[N+]([O-])c1c(CS(=O)(=O)c2ccccc2)nc2c(Sc3ccc(Cl)cc3)cc(Cl)cn12 [Hit B, reference compound] | 1 ± 0.3 | 3.2 ± 0.1 | > 100 | −0.63 | – |
| O=[N+]([O-])c1c(CS(=O)(=O)CCC(F)(F)F)nc2c(S(=O)(=O)c3ccc(Cl)cc3)cc(Cl)cn12 [Compound 6b, 6-Chloro-8-[(4-Chlorophenyl)sulfonyl]-3-Nitro-2-[(3,3,3-Trifluoropropylsulfonyl)methyl] imidazo[1,2-a]pyridine] | 1.3 ± 0.2 | 8.3 ± 0.8 | > 10 | – | 233 |
| O=[N+]([O-])c1c(CS(=O)(=O)c2ccc(C(F)(F)F)cc2)nc2c(Sc3ccc(Cl)cc3)cc(Cl)cn12 [Compound 3d, 6-Chloro-8-[(4-Chlorophenyl)thio]-3-Nitro-2-[(4-Trifluoromethylphenylsulfonyl)methyl]imidazo[1,2-a]pyridine] | 1.8 ± 0.2 | 4.4 ± 0.2 | > 3.9 | −0.56 | 222 |
| O=[N+]([O-])c1c(CS(=O)(=O)c2ccc(O)cc2)nc2c(Sc3ccc(Cl)cc3)cc(Cl)cn12 [Compound 3a, 4-{[(6-Chloro-8-[(4-Chlorophenyl)thio]-3-Nitroimidazo[1,2-a]pyridin-2-yl)methyl]sulfonyl}phenol] | 0.8 ± 0.2 | 2.7 ± 0.5 | 22.3 ± 2.5 | – | 241 |
| O=[N+]([O-])c1c(CS(=O)(=O)C2CC2)nc2c(Sc3ccc(Cl)cc3)cc(Cl)cn12 [Compound 3h, 6-Chloro-8-[(4-Chlorophenyl)thio]-2-[(cyclopropylsulfonyl)methyl]-3-Nitroimidazo[1,2-a]pyridine] | 2.2 ± 0.3 | 3.7 ± 0.2 | 22.3 ± 2.5 | −0.65 | 196 |
| COc1ccc(S(=O)(=O)Cc2nc3c(Br)cc(Cl)cn3c2[N+](=O)[O-])cc1 [Compound 2g, 8-Bromo-6-Chloro-2-[(4-Methoxyphenylsulfonyl)methyl]-3-Nitroimidazo[1,2-a]pyridine] | 2.8 ± 0.9 | 2.2 ± 0.1 | 3.9 ± 1.3 | −0.64 | 226 |
| O=[N+]([O-])c1c(CS(=O)(=O)c2ccccc2)nc2c(Br)cc(Cl)cn12 [Hit A, 8-Bromo-6-chloro-3-nitro-2-(phenylsulfonylmethyl)imidazo[1,2-a]pyridine, reference compound] | 5.3 ± 1.1 | 2.1 ± 0.1 | > 15.6 | −0.65 | – |
| CSc1ccc(OCc2ncc([N+](=O)[O-])n2C)cc1 [Fexinidazole, reference compound] | 1.2 ± 0.2 | 15.9 ± 3.2 | > 100 | −0.83 | – |
| O=[N+]([O-])c1c(CS(=O)(=O)CCC(F)(F)F)nc2c(-c3ccncc3)cc(Cl)cn12 [Compound 7, 6-Chloro-3-Nitro-8-(Pyridin-4-yl)-2-[(3,3,3-Trifluoropropylsulfonyl)methyl]imidazo[1,2-a]pyridine] | 3.1 ± 0.6 | 3.7 ± 0.4 | > 100 | −0.61 | 184 |
| O=[N+]([O-])c1c(CS(=O)(=O)c2ccc(F)cc2)nc2c(Sc3ccc(Cl)cc3)cc(Cl)cn12 [Compound 3c, 6-Chloro-8-[(4-Chlorophenyl)thio]-2-[(4-Fluorophenylsulfonyl)methyl]-3-Nitroimidazo[1,2-a]pyridine] | 0.9 ± 0.1 | 1.6 ± 0.1 | > 15.6 | −0.61 | 197 |
| COc1ccc(S(=O)(=O)Cc2nc3c(Sc4ccc(Cl)cc4)cc(Cl)cn3c2[N+](=O)[O-])cc1 [Compound 3f, 6-Chloro-8-[(4-Chlorophenyl)thio]-2-[(4-Methoxyphenylsulfonyl)methyl]-3-Nitroimidazo[1,2-a]pyridine] | 1.2 ± 0.1 | 0.9 ± 0.1 | > 3.9 | −0.66 | 214 |
| O=[N+]([O-])c1c(CS(=O)(=O)CCC(F)(F)F)nc2c(Sc3ccc(Cl)cc3)cc(Cl)cn12 [Compound 3i, 6-Chloro-8-[(4-Chlorophenyl)thio]-3-Nitro-2-[(3,3,3-Trifluoropropylsulfonyl)methyl]imidazo[1,2-a]pyridine] | 1.4 ± 0.2 | 1.2 ± 0.1 | > 6.2 | −0.64 | 183 |
